Assay in all cases: GFP plasmid transfection with DOTMA/DOPE plus plant virus movement protein derived peptides (Example 2)
Common to all, as to format: cell-based

One test relates to HeLa Cells. The settings on record: 1-6 μL of transfection reagents. On the procedure:
(§1) Cells were plated to so that on the day of transfection the cells were 70% confluent in 96 well tissue culture plates. A DOMTA/DOPE Lipid solution (1:1 molar ratio) at 2 mg/mL in water were mixed with an equal volume of plant virus movement protein derived peptides that had the nucleic acid binding moiety RRRRRRRRRRRR (SEQ ID NO:109) or KKKKKKKKKKKKKKKK (SEQ ID NO: 102) covalently linked to the N-terminus, or C-terminus of each peptide during peptide synthesis. Peptides were at 2 mg/mL in water. The DOTMA/DOPE and the plant virus movement peptide solution the was diluted 1 to 1 (v/v) in water. DOMTA/DOPE/PEPTIDE solutions were added to 0.1 mL of a plasmid DNA solution (EF1Alpha eGFP plasmid) at 10 μg/mL in OptiMEM.
(§2) All solutions were at room temperature. A volume of 0.2 mL of a 10 μg/mL solution of DNA was aliquoted into each well of a non-tissue cultured treated plate. 1-6 μL of transfection reagents were added to DNA solutions respectively. The transfection reagent and DNA solution was mixed by pipetting up and down twice. Transfection complexes were formed for 10 minutes. After 10 minutes, 0.01 or 0.02 mL of the transfection complex was added to cells. HuVEC, HeLa, human adult keratinocytes, human primary adult fibroblast, and A549 cells all respectively received 0.01 mL of the transfection complex. Human skeletal muscle cells, mouse C2C12 cells, and Jurkat, cells received 0.02 mL of the transfection complex. Cells were incubated for 42 hours at 37° C. at 5% CO2. Plates were read on a fluorescent plate reader. Cells were also examined visually under a microscope to assess the extent of transfection (in terms of the percent of cells transfected) with a fluorescent microscope. Other modes of analysis, for example quantification with B-galactosidase or luciferase reports plasmids can also be used.

In the next test the test system is HuVec Cells. Conditions: 42 hours. The procedure:
as §1, §2

The test system of test [1] is Human Primary Fibroblast Cells. Conditions: 42 hours. The procedure: as §1, §2
[2] abbreviates: value column 1 of 6, head not given, 1 µL transfection reagent.
The mark [3] stands for this setting: value column 3 of 6, head not given, 3 µL transfection reagent.
[4] abbreviates: value column 4 of 6, head not given, 4 µL transfection reagent.

On to “541 (RRRRRRRRRRRRGKWERKPIRCAS) [compound 541]”, for which the “Relative Fluorescence of Transfection of Hela Cells” value is 36476 with HeLa Cells (2 µL transfection reagent); 20473 with HeLa Cells (5 µL transfection reagent); 17145 in the test with HeLa Cells (setting [2]); 37105 with HeLa Cells (setting [3]); 23644 in the test with HeLa Cells (setting [4]). In addition, the “Relative Fluorescence of Transfection of HuVEC Cells” value is listed as 27405 Rf in the test with HuVec Cells (Transfection Agent 1 μl); 46446 Rf with HuVec Cells (Transfection Agent 1.5 μl); “OVER” in the test with HuVec Cells (Transfection Agent 2 μl); 40401 Rf with HuVec Cells (Transfection Agent 3 μl); 31568 Rf in the test on HuVec Cells (Transfection Agent 4 μl); 28125 Rf in the test with HuVec Cells (Transfection Agent 6 μl). Moreover, the “Relative Fluorescence of Transfection of Human Primary Fibroblast Cells” value in test [1] (Transfection Agent 1 μl) was determined as 35030 Rf; in test [1] (Transfection Agent 1.5 μl), 44894 Rf; in test [1] (Transfection Agent 2 μl), 42097 Rf; in test [1] (Transfection Agent 3 μl), 31837 Rf; in test [1] (Transfection Agent 4 μl), 29537 Rf; in test [1] (Transfection Agent 6 μl) it was 28921 Rf.
Regarding “540 (RRRRRRRRRRRRVDYGKWERKPIRCASMSR) [compound 540]”, the “Relative Fluorescence of Transfection of Hela Cells” value in the test with HeLa Cells (2 µL transfection reagent) worked out at 35653; in the test on HeLa Cells (5 µL transfection reagent), 13917; in the test with HeLa Cells (setting [2]), 6422; in the test with HeLa Cells (setting [3]), 27970; in the test on HeLa Cells (setting [4]), 18620. For the same substance, the “Relative Fluorescence of Transfection of HuVEC Cells” value with HuVec Cells (Transfection Agent 1 μl) is reported as 24771 Rf; in the test on HuVec Cells (Transfection Agent 1.5 μl) it was 34062 Rf; in the test with HuVec Cells (Transfection Agent 2 μl), 44744 Rf; in the test on HuVec Cells (Transfection Agent 3 μl) it was 44087 Rf; in the test on HuVec Cells (Transfection Agent 4 μl), 45137 Rf; in the test on HuVec Cells (Transfection Agent 6 μl), 30023 Rf. In addition, the “Relative Fluorescence of Transfection of Human Primary Fibroblast Cells” value in test [1] (Transfection Agent 1 μl) is recorded as 29368 Rf; in test [1] (Transfection Agent 1.5 μl), 40610 Rf; in test [1] (Transfection Agent 2 μl), 35505 Rf; in test [1] (Transfection Agent 3 μl) it was 33853 Rf; in test [1] (Transfection Agent 4 μl), 33063 Rf; in test [1] (Transfection Agent 6 μl), 30219 Rf.
Regarding “544 (GVKRSYGAARGDDRRRPNVVAPYKAWRRRRRRRRRRRR) [compound 544]”, the “Relative Fluorescence of Transfection of Hela Cells” value was determined as 19151 with HeLa Cells (2 µL transfection reagent); 12759 with HeLa Cells (5 µL transfection reagent); 10683 in the test with HeLa Cells (setting [2]); 19877 with HeLa Cells (setting [3]); 16908 in the test with HeLa Cells (setting [4]). For the same substance, the “Relative Fluorescence of Transfection of HuVEC Cells” value in the test with HuVec Cells (Transfection Agent 1 μl) came out at 25788 Rf; in the test with HuVec Cells (Transfection Agent 1.5 μl) it was 28622 Rf; in the test with HuVec Cells (Transfection Agent 2 μl), 31245 Rf; with HuVec Cells (Transfection Agent 3 μl), 34718 Rf; in the test on HuVec Cells (Transfection Agent 4 μl), 31159 Rf; in the test with HuVec Cells (Transfection Agent 6 μl), 28639 Rf. Also, the “Relative Fluorescence of Transfection of Human Primary Fibroblast Cells” value worked out at 31368 Rf in test [1] (Transfection Agent 1 μl); 39311 Rf in test [1] (Transfection Agent 1.5 μl); 37634 Rf in test [1] (Transfection Agent 2 μl); 32892 Rf in test [1] (Transfection Agent 3 μl); 31428 Rf in test [1] (Transfection Agent 4 μl); 28367 Rf in test [1] (Transfection Agent 6 μl).
Turning to “546 (RTGVKRSYGAARGDDRRRPNVVRRRRRRRRRRRR) [compound 546]”, the “Relative Fluorescence of Transfection of Hela Cells” value in the test with HeLa Cells (2 µL transfection reagent) amounted to 15022; in the test on HeLa Cells (5 µL transfection reagent) it was 8117; in the test on HeLa Cells (setting [2]) it was 15190; with HeLa Cells (setting [3]), 12772; in the test on HeLa Cells (setting [4]), 11535. Besides, the “Relative Fluorescence of Transfection of HuVEC Cells” value in the test with HuVec Cells (Transfection Agent 1 μl) amounted to 25990 Rf; in the test with HuVec Cells (Transfection Agent 1.5 μl), 32762 Rf; with HuVec Cells (Transfection Agent 2 μl), 37899 Rf; in the test with HuVec Cells (Transfection Agent 3 μl), 35528 Rf; in the test on HuVec Cells (Transfection Agent 4 μl), 31614 Rf; in the test on HuVec Cells (Transfection Agent 6 μl), 27690 Rf. Further, the “Relative Fluorescence of Transfection of Human Primary Fibroblast Cells” value in test [1] (Transfection Agent 1 μl) worked out at 31980 Rf; in test [1] (Transfection Agent 1.5 μl) it was 39259 Rf; in test [1] (Transfection Agent 2 μl) it was 41747 Rf; in test [1] (Transfection Agent 3 μl) it was 35020 Rf; in test [1] (Transfection Agent 4 μl), 32220 Rf; in test [1] (Transfection Agent 6 μl) it was 29476 Rf.
Regarding “543 (RRRRRRRRRRRRVDFSHVDYGKWERKPIRCASMSRLGLRG) [compound 543]”, the “Relative Fluorescence of Transfection of Hela Cells” value is given as 42502 in the test on HeLa Cells (2 µL transfection reagent); 13793 in the test with HeLa Cells (5 µL transfection reagent); 12174 in the test on HeLa Cells (setting [2]); 38779 with HeLa Cells (setting [3]); 28451 in the test with HeLa Cells (setting [4]). Besides, the “Relative Fluorescence of Transfection of HuVEC Cells” value in the test with HuVec Cells (Transfection Agent 1 μl) is recorded as 26622 Rf; in the test with HuVec Cells (Transfection Agent 1.5 μl), 36742 Rf; with HuVec Cells (Transfection Agent 2 μl) it was 42802 Rf; with HuVec Cells (Transfection Agent 3 μl), 40584 Rf; in the test with HuVec Cells (Transfection Agent 4 μl) it was 32754 Rf; in the test with HuVec Cells (Transfection Agent 6 μl), 25492 Rf. In addition, the “Relative Fluorescence of Transfection of Human Primary Fibroblast Cells” value in test [1] (Transfection Agent 1 μl) was determined as 30416 Rf; in test [1] (Transfection Agent 1.5 μl), 45401 Rf; in test [1] (Transfection Agent 2 μl) it was 39786 Rf; in test [1] (Transfection Agent 3 μl), 33091 Rf; in test [1] (Transfection Agent 4 μl), 28648 Rf; in test [1] (Transfection Agent 6 μl) it was 28698 Rf.
In the case of “545 (KSVPNRTRTYIKLKRLRFKGAPYKAWRRRRRRRRRRRR) [compound 545]”, the “Relative Fluorescence of Transfection of Hela Cells” value with HeLa Cells (2 µL transfection reagent) is given as 28529; in the test on HeLa Cells (5 µL transfection reagent), 13009; in the test on HeLa Cells (setting [2]), 11056; in the test on HeLa Cells (setting [3]) it was 28943; with HeLa Cells (setting [4]) it was 14693. Moreover, the “Relative Fluorescence of Transfection of HuVEC Cells” value with HuVec Cells (Transfection Agent 1 μl) is 26545 Rf; in the test with HuVec Cells (Transfection Agent 1.5 μl) it was 36649 Rf; in the test on HuVec Cells (Transfection Agent 2 μl), 46890 Rf; with HuVec Cells (Transfection Agent 3 μl), 34047 Rf; in the test with HuVec Cells (Transfection Agent 4 μl) it was 30893 Rf; in the test on HuVec Cells (Transfection Agent 6 μl) it was 27133 Rf. For the same substance, the “Relative Fluorescence of Transfection of Human Primary Fibroblast Cells” value in test [1] (Transfection Agent 1 μl) was found to be 34309 Rf; in test [1] (Transfection Agent 1.5 μl), 48184 Rf; in test [1] (Transfection Agent 2 μl), 37497 Rf; in test [1] (Transfection Agent 3 μl), 29067 Rf; in test [1] (Transfection Agent 4 μl), 28928 Rf; in test [1] (Transfection Agent 6 μl), 29256 Rf.

Source of the values: US20250154525A1, “PLANT VIRUS MOVEMENT PROTEINS AND METHODS OF USING SAME” (Molecular Transfer, Inc., priority 2016, published 2025).
